Assay results as given in PubChem BioAssay (NCI).
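Dose response: 5 concentrations. Exposure: 48 h. Format: 96-well plates. Endpoint: linear interpolation; highest concentration if not reached. TGI denotes the concentration required for complete inhibition of growth.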

Assays:
Assay in all cases: NCI tumour cell line growth inhibition, 48 h
[1] = tested on: K-562 leukemia
[2] = tested on: DU-145 prostate
[3] = tested on: MDA-N
[4] = tested on: HOP-62 NSCLC
[5] = tested on: A549 NSCLC
[6] = tested on: SW-620 colon
[7] = tested on: NCI-H226 lung
[8] = tested on: SR leukemia
[9] = tested on: SF-539 CNS
[10] = tested on: SK-OV-3 ovarian
[11] = tested on: OVCAR-3 ovarian
[12] = tested on: HT29 colon
[13] = tested on: NCI/ADR-RES ovarian
[14] = tested on: BT-549 breast
[15] = tested on: HCT-15 colon
[16] = tested on: M14 melanoma
[17] = tested on: NCI-H522 lung
[18] = tested on: SNB-75 CNS
[19] = tested on: RPMI-8226 leukemia
[20] = tested on: U251 CNS
[21] = tested on: HCT-116 colon
[22] = tested on: RXF 393 renal
[23] = tested on: KM12 colon
[24] = tested on: LOX IMVI melanoma
[25] = tested on: MCF7 breast
[26] = tested on: SN12C renal
[27] = tested on: EKVX NSCLC
[28] = tested on: ACHN renal
[29] = tested on: OVCAR-8 ovarian
[30] = tested on: MDA-MB-231 breast
[31] = tested on: UO-31 renal
[32] = tested on: 786-0 renal
[33] = tested on: UACC-257 melanoma
[34] = tested on: MOLT-4 leukemia
[35] = tested on: NCI-H23 lung
[36] = tested on: HL-60(TB) leukemia
[37] = tested on: IGROV1 ovarian
[38] = tested on: SNB-19 CNS
[39] = tested on: T-47D breast
[40] = tested on: MALME-3M melanoma
[41] = tested on: TK-10 renal
[42] = tested on: MDA-MB-435
[43] = tested on: SK-MEL-5 melanoma
[44] = tested on: OVCAR-5 ovarian
[45] = tested on: HS 578T breast
[46] = tested on: A498 renal
[47] = tested on: PC-3 prostate
[48] = tested on: SK-MEL-2 melanoma
[49] = tested on: SF-268 CNS
[50] = tested on: UACC-62 melanoma
[51] = tested on: CCRF-CEM leukemia
[52] = tested on: CAKI-1 renal
[53] = tested on: COLO 205 colon
[54] = tested on: OVCAR-4 ovarian
[55] = tested on: SF-295 CNS
[56] = tested on: NCI-H460 lung
[57] = tested on: HCC-2998 colon
[58] = tested on: SK-MEL-28 melanoma
[59] = tested on: HOP-92 NSCLC

SMILES: N#Cc1c(C#N)c(-c2ccccc2)n(-c2ccccc2)c1N
- TGI [1]: > 100 µM
- TGI [2]: > 100 µM
- TGI [3]: > 100 µM
- TGI [4]: > 100 µM
- TGI [5]: > 100 µM
- TGI [6]: > 100 µM
- TGI [7]: > 100 µM
- TGI [8]: > 100 µM
- TGI [9]: > 100 µM
- TGI [10]: > 100 µM
- TGI [11]: > 100 µM
- TGI [12]: > 100 µM
- TGI [13]: > 100 µM
- TGI [14]: > 100 µM
- TGI [15]: > 100 µM
- TGI [16]: > 100 µM
- TGI [17]: > 100 µM
- TGI [18]: 86.4 µM
- TGI [19]: > 100 µM
- TGI [20]: > 100 µM
- TGI [21]: > 100 µM
- TGI [22]: > 100 µM
- TGI [23]: > 100 µM
- TGI [24]: > 100 µM
- TGI [25]: > 100 µM
- TGI [26]: > 100 µM
- TGI [27]: > 100 µM
- TGI [28]: > 100 µM
- TGI [29]: > 100 µM
- TGI [30]: > 100 µM
- TGI [31]: > 100 µM
- TGI [32]: > 100 µM
- TGI [33]: > 100 µM
- TGI [34]: > 100 µM
- TGI [35]: > 100 µM
- TGI [36]: > 100 µM
- TGI [37]: > 100 µM
- TGI [38]: > 100 µM
- TGI [39]: 56.1 µM
- TGI [40]: > 100 µM
- TGI [41]: > 100 µM
- TGI [42]: > 100 µM
- TGI [43]: > 100 µM
- TGI [44]: > 100 µM
- TGI [45]: > 100 µM
- TGI [46]: > 100 µM
- TGI [47]: > 100 µM
- TGI [48]: > 100 µM
- TGI [49]: > 100 µM
- TGI [50]: > 100 µM
- TGI [51]: > 100 µM
- TGI [52]: > 100 µM
- TGI [53]: > 100 µM
- TGI [54]: > 100 µM
- TGI [55]: > 100 µM

SMILES: COC(=O)C1(Cc2ccc3c(c2)CCC3)Cc2ccccc2C1=O (configuration not stated)
- TGI [1]: 48.4 µM
- TGI [56]: 93.6 µM
- TGI [2]: 67.8 µM
- TGI [3]: 13.3 µM
- TGI [4]: 59.3 µM
- TGI [5]: > 100 µM
- TGI [6]: > 100 µM
- TGI [7]: 50.5 µM
- TGI [8]: > 100 µM
- TGI [9]: 32.9 µM
- TGI [10]: 85.8 µM
- TGI [11]: > 100 µM
- TGI [12]: 30.3 µM
- TGI [13]: > 100 µM
- TGI [14]: 41.7 µM
- TGI [15]: > 100 µM
- TGI [16]: 32.4 µM
- TGI [17]: 31.5 µM
- TGI [18]: > 100 µM
- TGI [57]: > 100 µM
- TGI [19]: 58.7 µM
- TGI [20]: 37.2 µM
- TGI [21]: 46.6 µM
- TGI [23]: 20.3 µM
- TGI [24]: 28.5 µM
- TGI [25]: 70.1 µM
- TGI [26]: > 100 µM
- TGI [27]: 73.7 µM
- TGI [28]: > 100 µM
- TGI [29]: > 100 µM
- TGI [30]: > 100 µM
- TGI [31]: 84.4 µM
- TGI [32]: > 100 µM
- TGI [33]: 76 µM
- TGI [34]: 52.3 µM
- TGI [35]: 95.4 µM
- TGI [36]: 32.4 µM
- TGI [37]: > 100 µM
- TGI [38]: > 100 µM
- TGI [39]: > 100 µM
- TGI [40]: > 100 µM
- TGI [41]: 55.9 µM
- TGI [42]: 18 µM
- TGI [43]: 18.1 µM
- TGI [44]: > 100 µM
- TGI [45]: 87.6 µM
- TGI [46]: 57.9 µM
- TGI [47]: > 100 µM
- TGI [48]: 38.7 µM
- TGI [49]: 70.7 µM
- TGI [58]: 40.3 µM
- TGI [50]: > 100 µM
- TGI [51]: 67.2 µM
- TGI [52]: > 100 µM
- TGI [53]: 30.4 µM
- TGI [54]: > 100 µM
- TGI [55]: 67.4 µM

SMILES: CCOC(=O)C1CN(C2CC2)CCC1=O (configuration not stated)
- TGI [1]: > 100 µM
- TGI [56]: > 100 µM
- TGI [2]: > 100 µM
- TGI [3]: > 100 µM
- TGI [4]: > 100 µM
- TGI [5]: > 100 µM
- TGI [6]: > 100 µM
- TGI [7]: > 100 µM
- TGI [8]: > 100 µM
- TGI [10]: > 100 µM
- TGI [11]: > 100 µM
- TGI [12]: > 100 µM
- TGI [13]: > 100 µM
- TGI [14]: > 100 µM
- TGI [15]: > 100 µM
- TGI [16]: > 100 µM
- TGI [18]: > 100 µM
- TGI [57]: > 100 µM
- TGI [19]: > 100 µM
- TGI [20]: > 100 µM
- TGI [21]: > 100 µM
- TGI [22]: > 100 µM
- TGI [23]: > 100 µM
- TGI [24]: > 100 µM
- TGI [25]: > 100 µM
- TGI [26]: > 100 µM
- TGI [27]: > 100 µM
- TGI [28]: > 100 µM
- TGI [29]: > 100 µM
- TGI [30]: > 100 µM
- TGI [31]: > 100 µM
- TGI [32]: > 100 µM
- TGI [33]: > 100 µM
- TGI [34]: > 100 µM
- TGI [35]: > 100 µM
- TGI [36]: > 100 µM
- TGI [37]: > 100 µM
- TGI [38]: > 100 µM
- TGI [39]: > 100 µM
- TGI [40]: > 100 µM
- TGI [41]: > 100 µM
- TGI [42]: > 100 µM
- TGI [43]: > 100 µM
- TGI [44]: > 100 µM
- TGI [45]: > 100 µM
- TGI [47]: > 100 µM
- TGI [48]: > 100 µM
- TGI [49]: > 100 µM
- TGI [58]: > 100 µM
- TGI [50]: > 100 µM
- TGI [51]: > 100 µM
- TGI [52]: > 100 µM
- TGI [53]: > 100 µM
- TGI [54]: > 100 µM
- TGI [55]: > 100 µM

SMILES: O=C(c1ccco1)C1CC(c2c(O)ccc3ccccc23)=NN1 (configuration not stated)
- TGI [1]: > 100 µM
- TGI [56]: 19.9 µM
- TGI [2]: 30.8 µM
- TGI [3]: 36.4 µM
- TGI [4]: 27.3 µM
- TGI [6]: 31 µM
- TGI [7]: 40.2 µM
- TGI [8]: 42.8 µM
- TGI [9]: 26.7 µM
- TGI [10]: 56.6 µM
- TGI [11]: 25.8 µM
- TGI [12]: 24 µM
- TGI [13]: 51.1 µM
- TGI [14]: 31 µM
- TGI [15]: > 100 µM
- TGI [59]: 37.4 µM
- TGI [16]: 26 µM
- TGI [17]: 22.5 µM
- TGI [18]: 33.6 µM
- TGI [57]: 25.7 µM
- TGI [19]: 86.6 µM
- TGI [20]: 34.1 µM
- TGI [22]: 50 µM
- TGI [23]: 24.3 µM
- TGI [25]: 22 µM
- TGI [26]: 46 µM
- TGI [27]: 32.4 µM
- TGI [28]: 25 µM
- TGI [29]: 51.5 µM
- TGI [30]: 37.3 µM
- TGI [31]: 23.1 µM
- TGI [33]: 57.9 µM
- TGI [34]: 42.7 µM
- TGI [35]: 37.7 µM
- TGI [36]: 53.8 µM
- TGI [37]: 42 µM
- TGI [38]: 47.8 µM
- TGI [39]: 50.5 µM
- TGI [40]: 37.9 µM
- TGI [41]: 32.5 µM
- TGI [42]: 22.4 µM
- TGI [43]: 29.7 µM
- TGI [44]: 36.3 µM
- TGI [45]: 46.3 µM
- TGI [46]: 40.4 µM
- TGI [47]: 21.1 µM
- TGI [48]: 39.2 µM
- TGI [49]: 30.2 µM
- TGI [58]: 47.8 µM
- TGI [50]: 26 µM
- TGI [51]: 93 µM
- TGI [52]: 38.8 µM
- TGI [53]: 21.7 µM
- TGI [54]: > 100 µM
- TGI [55]: 23.3 µM
